The source of these data is US20250354195A1, “METHOD OF SCREENING” (UNIVERSITY OF DUNDEE, priority 2024, published 2025).

This test concerns the target T1, GSK3β (Homo sapiens, UniProt P49841+Q96SW2).
T1 construct: genetically engineered using CRISPR/Cas9 technology to endogenously tag GSK3p protein with HiBiT tag at the C-terminus; host or cells: HEK293 cells, CRISPR/Cas9 knock-in of HiBiT at the endogenous GSK3B locus
As to the kind of experiment: High throughput screening for GSK3β-HiBiT targeted degradation (Nano-Glo HiBiT Lytic luminescence). In kind it is cell-based. Particulars: HEK293 cells with endogenously HiBiT-tagged GSK3β, 24 h incubation, products of one-pot plate array (FIG. 1, Method A); for DC50: 0.01-30 μM, read-out: DC50 (half-maximal degradation concentration). As to the method: High throughput Screening for GSK3 β-HiBiTL: Test compounds were transferred into Echo plate (Beckman, 001-12782, Echo LDV384) using BRAVO automated liquid handling platform which serves as source plate (10 mM stocks in DMSO). Serial dilutions of the compounds were done using Echo550 liquid handler as 30 μM, 10 μM, 3 μM, 1 μM, 0.3 μM, 0.1 μM, 0.03 μM and 0.01 μM in final concentrations in assay plates. One column of each assay plate was reserved for DMSO control treatments. After compounds were serially diluted in assay plates, HEK293 cells (CRL-1573, ATCC) genetically engineered using CRISPR/Cas9 technology to endogenously tag GSK3p protein with HiBiT tag at the C-terminus (Schwinn et al., 2018, CRISPR-mediated tagging of endogenous proteins with a luminescent peptide, ACS Chem. Biol., 13(2), 467-74) were seeded at a density of 5000 cells/well in 50 μL complete media in 384-well TC-grade white plates (Perkin Elmer, Culturplate, 6007619) with the help of Multidrop Combi liquid dispenser and cells were incubated for 24 h with compounds at 37° C. in humidified incubators with 5% CO2. At the end of the treatment, equal volume of Nano-Glo HiBiT Lytic reagent (Promega N3030) supplied with Nano-Glo HiBiT Lytic substrate and LgBiT Protein were added into each well according to manufacturer's instructions, and cells were incubated on an orbital shaker for 15 seconds and for a further 15 minutes at room temperature. Luminescence signals were measured in an appropriate plate reader (PHERAstar FSX, BMG Labtech) (Dixon et al., 2016, NanoLuc complementation reporter optimized for accurate measurement of protein interactions in cells, ACS Chem. Biol., 11, 400-8). Changes in protein abundance upon compound treatment were further analysed by normalising raw luminescence values to DMSO values and fold changes were plotted using for parameter logistic regression with GraphPad Prism (10.1.2).
Furthermore, the present investigators have shown that bifunctional compounds manufactured using the method of the present disclosure may be effective in the uses of bifunctional compounds, for example as PROTACs in targeted protein degradation (TPD). […] GSK3p was targeted for degradation using a binder for GSK3p, and a binder for CRBN; the binders were comprised in molecules comprising moieties for reacting with the orthogonally reactive moieties of the linker. […] The “identifier” identifies the well of the multi-well plate that has been sampled, e.g., AHD2B-1-A1 relates to the top left well in FIG. 1. The DC50 provides an indication of the potency of the bifunctional compound in targeted degradation; Dmax provides an indication of the maximum possible degradation. The use of these metrics is further described in Flexible Fitting of PROTAC Concentration-Response Curves with Changepoint Gaussian Processes, Semenova et al., SLAS Discovery, 2021, 26, 1212-1224.

Molecules are shown by their SMILES.

T1 sequence (P49841 whole entry): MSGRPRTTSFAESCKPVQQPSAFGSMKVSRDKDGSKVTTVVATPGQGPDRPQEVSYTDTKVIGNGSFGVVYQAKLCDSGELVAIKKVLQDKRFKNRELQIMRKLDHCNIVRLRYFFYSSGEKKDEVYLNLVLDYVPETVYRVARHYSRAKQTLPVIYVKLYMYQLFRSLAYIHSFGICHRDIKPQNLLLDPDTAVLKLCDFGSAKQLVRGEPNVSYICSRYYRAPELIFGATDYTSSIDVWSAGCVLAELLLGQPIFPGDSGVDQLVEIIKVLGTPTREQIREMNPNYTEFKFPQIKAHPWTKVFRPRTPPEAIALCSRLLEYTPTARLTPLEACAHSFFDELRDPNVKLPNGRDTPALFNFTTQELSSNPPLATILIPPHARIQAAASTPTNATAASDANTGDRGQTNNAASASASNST
T1 sequence (Q96SW2 whole entry): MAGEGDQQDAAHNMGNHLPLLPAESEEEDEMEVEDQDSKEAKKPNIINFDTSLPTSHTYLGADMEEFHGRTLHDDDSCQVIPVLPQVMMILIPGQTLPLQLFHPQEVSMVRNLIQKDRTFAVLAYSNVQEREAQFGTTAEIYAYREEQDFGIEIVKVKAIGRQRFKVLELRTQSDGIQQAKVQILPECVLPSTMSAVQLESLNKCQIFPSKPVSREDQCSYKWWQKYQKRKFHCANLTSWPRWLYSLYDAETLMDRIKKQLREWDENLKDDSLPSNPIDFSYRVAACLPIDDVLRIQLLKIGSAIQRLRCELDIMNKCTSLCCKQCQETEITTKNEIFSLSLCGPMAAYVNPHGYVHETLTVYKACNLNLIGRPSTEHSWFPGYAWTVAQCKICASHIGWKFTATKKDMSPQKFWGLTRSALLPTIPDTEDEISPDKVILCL
T1 sequence (Q16531 whole entry partner): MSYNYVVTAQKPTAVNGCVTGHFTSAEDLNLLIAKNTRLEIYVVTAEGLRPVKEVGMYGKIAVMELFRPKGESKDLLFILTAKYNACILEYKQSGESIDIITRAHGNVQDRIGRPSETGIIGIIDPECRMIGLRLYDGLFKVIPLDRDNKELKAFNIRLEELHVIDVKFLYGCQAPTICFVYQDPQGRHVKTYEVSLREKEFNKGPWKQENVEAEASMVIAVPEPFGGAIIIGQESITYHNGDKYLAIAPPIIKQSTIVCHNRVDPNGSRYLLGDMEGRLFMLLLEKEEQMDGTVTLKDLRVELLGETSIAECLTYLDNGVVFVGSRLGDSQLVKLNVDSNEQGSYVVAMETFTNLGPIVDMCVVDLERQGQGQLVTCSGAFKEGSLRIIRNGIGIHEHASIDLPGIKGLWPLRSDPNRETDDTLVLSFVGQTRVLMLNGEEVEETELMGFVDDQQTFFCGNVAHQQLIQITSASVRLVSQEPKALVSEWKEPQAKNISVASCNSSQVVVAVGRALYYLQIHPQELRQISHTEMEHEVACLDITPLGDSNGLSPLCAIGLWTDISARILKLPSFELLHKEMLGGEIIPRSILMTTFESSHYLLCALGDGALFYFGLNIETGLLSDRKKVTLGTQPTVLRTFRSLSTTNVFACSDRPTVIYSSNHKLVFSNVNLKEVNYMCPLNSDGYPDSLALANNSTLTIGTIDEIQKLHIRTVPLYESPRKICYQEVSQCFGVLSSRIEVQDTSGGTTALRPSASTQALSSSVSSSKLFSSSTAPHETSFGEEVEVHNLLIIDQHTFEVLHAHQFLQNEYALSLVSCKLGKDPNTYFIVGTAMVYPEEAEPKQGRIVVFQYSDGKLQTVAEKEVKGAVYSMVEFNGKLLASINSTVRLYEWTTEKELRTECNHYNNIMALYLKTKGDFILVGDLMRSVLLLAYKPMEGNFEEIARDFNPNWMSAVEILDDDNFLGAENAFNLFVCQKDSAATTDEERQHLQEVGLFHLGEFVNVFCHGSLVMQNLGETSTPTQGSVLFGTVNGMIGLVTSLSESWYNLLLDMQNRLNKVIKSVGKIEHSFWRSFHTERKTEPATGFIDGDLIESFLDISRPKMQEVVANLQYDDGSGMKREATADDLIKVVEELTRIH

Regarding `COc1ccc(-c2ocnc2C(=O)NCCCn2cc(CCCCN3CCN(Cc4cccc(N5CCC(=O)NC5=O)c4)CC3)nn2)cc1Cl` [AHD2B-1-A1], the DC50 is above 10 µM and the “Dmax (maximal effect)” value was below 30%.
As to `COc1ccc(-c2ocnc2C(=O)NCCCn2cc(-c3ccc(CN4CCN(Cc5cccc(N6CCC(=O)NC6=O)c5)CC4)cn3)nn2)cc1Cl` [AHD2B-1-A2], the DC50 was above 10 µM and the “Dmax (maximal effect)” value is reported as below 30%.
For `COc1ccc(-c2ocnc2C(=O)NCCCn2cc(COc3ccc(CN4CCN(Cc5cccc(N6CCC(=O)NC6=O)c5)CC4)cc3)nn2)cc1Cl` [AHD2B-1-A3] the same measures were above 10 µM and below 30%.
On to `COc1ccc(-c2ocnc2C(=O)NCCCn2cc(CCCOc3ccc(CN4CCN(Cc5cccc(N6CCC(=O)NC6=O)c5)CC4)cc3)nn2)cc1Cl` [AHD2B-1-A4], for which the DC50 was above 10 µM and the “Dmax (maximal effect)” value is below 30%.
As to `COc1ccc(-c2ocnc2C(=O)NCCCn2cc(COC3CCN(Cc4cccc(N5CCC(=O)NC5=O)c4)CC3)nn2)cc1Cl` [AHD2B-1-A5], the DC50 was above 10 µM and the “Dmax (maximal effect)” value is on record as below 30%.
In the case of `COc1ccc(-c2ocnc2C(=O)NCCCn2cc(COc3ccc(CN4CCC5(C4)CN(Cc4cccc(N6CCC(=O)NC6=O)c4)C5)cc3)nn2)cc1Cl` [AHD2B-1-A6], the DC50 was above 10 µM and the “Dmax (maximal effect)” value is on record as below 30%.
For `COc1ccc(-c2ocnc2C(=O)NCCCn2cc(CCCCCN3CCN(Cc4cccc(N5CCC(=O)NC5=O)c4)CC3)nn2)cc1Cl` [AHD2B-1-A7] the same measures were above 10 µM and below 30%.
With `COc1ccc(-c2ocnc2C(=O)NCCCn2cc(-c3cccc(CN4CCN(Cc5cccc(N6CCC(=O)NC6=O)c5)CC4)n3)nn2)cc1Cl` [AHD2B-1-A8], the DC50 is above 10 µM and the “Dmax (maximal effect)” value is listed as below 30%.
In the case of `COc1ccc(-c2ocnc2C(=O)NCCCn2cc(CCCCCN3CCCN(Cc4cccc(N5CCC(=O)NC5=O)c4)CC3)nn2)cc1Cl` [AHD2B-1-A9], the DC50 was above 10 µM and the “Dmax (maximal effect)” value is below 30%.
For `COc1ccc(-c2ocnc2C(=O)NCCCn2cc(COCCOCCN3CCN(Cc4cccc(N5CCC(=O)NC5=O)c4)CC3)nn2)cc1Cl` [AHD2B-1-A10], the DC50 is above 10 µM and the “Dmax (maximal effect)” value is listed as below 30%.
For the molecule `COc1ccc(-c2ocnc2C(=O)NCCCn2cc(COc3ccc(CN4CC5(C4)CN(Cc4cccc(N6CCC(=O)NC6=O)c4)C5)cc3)nn2)cc1Cl` [AHD2B-1-A11], the DC50 is above 10 µM and the “Dmax (maximal effect)” value is listed as below 30%.
For `COc1ccc(-c2ocnc2C(=O)NCCCn2cc(CCCCN3CCN(CC(=O)N[C@H](C(=O)N4C[C@H](O)C[C@H]4C(=O)NCc4ccc(-c5scnc5C)cc4)C(C)(C)C)CC3)nn2)cc1Cl` [AHD2B-1-B1] the same measures were above 10 µM and below 30%.
On to `COc1ccc(-c2ocnc2C(=O)NCCCn2cc(-c3ccc(CN4CCN(CC(=O)N[C@H](C(=O)N5C[C@H](O)C[C@H]5C(=O)NCc5ccc(-c6scnc6C)cc5)C(C)(C)C)CC4)cn3)nn2)cc1Cl` [AHD2B-1-B2], for which the DC50 was above 10 µM and the “Dmax (maximal effect)” value was below 30%.
For `COc1ccc(-c2ocnc2C(=O)NCCCn2cc(COc3ccc(CN4CCN(CC(=O)N[C@H](C(=O)N5C[C@H](O)C[C@H]5C(=O)NCc5ccc(-c6scnc6C)cc5)C(C)(C)C)CC4)cc3)nn2)cc1Cl` [AHD2B-1-B3] the same measures were above 10 µM and below 30%.
Regarding `COc1ccc(-c2ocnc2C(=O)NCCCn2cc(CCCOc3ccc(CN4CCN(CC(=O)N[C@H](C(=O)N5C[C@H](O)C[C@H]5C(=O)NCc5ccc(-c6scnc6C)cc5)C(C)(C)C)CC4)cc3)nn2)cc1Cl` [AHD2B-1-B4], the DC50 is above 10 µM and the “Dmax (maximal effect)” value is reported as below 30%.
With `COc1ccc(-c2ocnc2C(=O)NCCCn2cc(COC3CCN(CC(=O)N[C@H](C(=O)N4C[C@H](O)C[C@H]4C(=O)NCc4ccc(-c5scnc5C)cc4)C(C)(C)C)CC3)nn2)cc1Cl` [AHD2B-1-B5], the DC50 was above 10 µM and the “Dmax (maximal effect)” value was below 30%.
For `COc1ccc(-c2ocnc2C(=O)NCCCn2cc(COc3ccc(CN4CCC5(C4)CN(CC(=O)N[C@H](C(=O)N4C[C@H](O)C[C@H]4C(=O)NCc4ccc(-c6scnc6C)cc4)C(C)(C)C)C5)cc3)nn2)cc1Cl` [AHD2B-1-B6] the same measures were above 10 µM and below 30%.
For `COc1ccc(-c2ocnc2C(=O)NCCCn2cc(-c3cccc(CN4CCN(CC(=O)N[C@H](C(=O)N5C[C@H](O)C[C@H]5C(=O)NCc5ccc(-c6scnc6C)cc5)C(C)(C)C)CC4)n3)nn2)cc1Cl` [AHD2B-1-B8] the same measures were above 10 µM and below 30%.
Turning to `COc1ccc(-c2ocnc2C(=O)NCCCn2cc(CCCCCN3CCCN(CC(=O)N[C@H](C(=O)N4C[C@H](O)C[C@H]4C(=O)NCc4ccc(-c5scnc5C)cc4)C(C)(C)C)CC3)nn2)cc1Cl` [AHD2B-1-B9], the DC50 was above 10 µM and the “Dmax (maximal effect)” value was below 30%.
For `COc1ccc(-c2ocnc2C(=O)NCCCn2cc(COCCOCCN3CCN(CC(=O)N[C@H](C(=O)N4C[C@H](O)C[C@H]4C(=O)NCc4ccc(-c5scnc5C)cc4)C(C)(C)C)CC3)nn2)cc1Cl` [AHD2B-1-B10] the same measures were above 10 µM and below 30%.
For `COc1ccc(-c2ocnc2C(=O)NCCCn2cc(COc3ccc(CN4CC5(CN(CC(=O)N[C@H](C(=O)N6C[C@H](O)C[C@H]6C(=O)NCc6ccc(-c7scnc7C)cc6)C(C)(C)C)C5)C4)cc3)nn2)cc1Cl` [AHD2B-1-B11] the same measures were above 10 µM and below 30%.
As for `COc1ccc(-c2ocnc2C(=O)NCCCn2cc(CCCN3CCN(CC(=O)N[C@H](C(=O)N4C[C@H](O)C[C@H]4C(=O)NCc4ccc(-c5scnc5C)cc4)C(C)(C)C)CC3)nn2)cc1Cl` [AHD2B-1-B12], the DC50 is above 10 µM and the “Dmax (maximal effect)” value is listed as below 30%.
For `COc1ccc(-c2ocnc2C(=O)NCCCn2cc(CCCOc3ccc(CN4CCN(Cc5ccc(C(=O)NC6CCC(=O)NC6=O)c(F)c5)CC4)cc3)nn2)cc1Cl` (stereo not drawn) [AHD2B-1-C4] the same measures were below 0.25 µM and 53%.
For `COc1ccc(-c2ocnc2C(=O)NCCCn2cc(COc3ccc(CN4CCC5(C4)CN(Cc4ccc(C(=O)NC6CCC(=O)NC6=O)c(F)c4)C5)cc3)nn2)cc1Cl` (stereo not drawn) [AHD2B-1-C6] the same measures were 1.6 µM and 59%.
Regarding `COc1ccc(-c2ocnc2C(=O)NCCCn2cc(-c3cccc(CN4CCN(Cc5ccc(C(=O)NC6CCC(=O)NC6=O)c(F)c5)CC4)n3)nn2)cc1Cl` (stereo not drawn) [AHD2B-1-C8], the DC50 is above 10 µM and the “Dmax (maximal effect)” value is below 30%.
Take `COc1ccc(-c2ocnc2C(=O)NCCCn2cc(CCCCCN3CCCN(Cc4ccc(C(=O)NC5CCC(=O)NC5=O)c(F)c4)CC3)nn2)cc1Cl` (stereo not drawn) [AHD2B-1-C9]: the DC50 turned out to be 7.1 µM and the “Dmax (maximal effect)” value was found to be 39%.
For `COc1ccc(-c2ocnc2C(=O)NCCCn2cc(COCCOCCN3CCN(Cc4ccc(C(=O)NC5CCC(=O)NC5=O)c(F)c4)CC3)nn2)cc1Cl` (stereo not drawn) [AHD2B-1-C10] the same measures were above 10 µM and below 30%.
For `COc1ccc(-c2ocnc2C(=O)NCCCn2cc(COc3ccc(CN4CC5(C4)CN(Cc4ccc(C(=O)NC6CCC(=O)NC6=O)c(F)c4)C5)cc3)nn2)cc1Cl` (stereo not drawn) [AHD2B-1-C11] the same measures were 1.9 µM and 56%.
For `COc1ccc(-c2ocnc2C(=O)NCCCn2cc(CCCN3CCN(Cc4ccc(C(=O)NC5CCC(=O)NC5=O)c(F)c4)CC3)nn2)cc1Cl` (stereo not drawn) [AHD2B-1-C12] the same measures were above 10 µM and below 30%.
`COc1ccc(-c2ocnc2C(=O)NCCCn2cc(CCCCN3CCN(Cc4ccc5c(N6CCC(=O)NC6=O)nn(C)c5c4)CC3)nn2)cc1Cl` [AHD2B-1-D1]: the DC50 was 2.1 µM and the “Dmax (maximal effect)” value was found to be 49%.
